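48-hour exposure; five concentrations; linearly interpolated endpoints. GI50 is the concentration that inhibits growth by half.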 Calls of active or inactive are those of the source. Rule as the data show it: active = GI50 up to about 1.1 µM and inactive = higher.
Experiments:
Assay in all cases: NCI-60 cell line screen, 48 h
786-0 = tested on: 786-0
CAKI-1 = tested on: CAKI-1
EKVX = tested on: EKVX
HCT-116 = tested on: HCT-116
HCT-15 = tested on: HCT-15
HL-60 = tested on: HL-60
HOP-62 = tested on: HOP-62
KM12 = tested on: KM12
MOLT-4 = tested on: MOLT-4
NCI-H226 = tested on: NCI-H226
OVCAR-4 = tested on: OVCAR-4
SK-MEL-28 = tested on: SK-MEL-28
SN12C = tested on: SN12C
SNB-75 = tested on: SNB-75
TK-10 = tested on: TK-10
UACC-62 = tested on: UACC-62
A498 = tested on: A498

| SMILES | GI50 (786-0) | GI50 (CAKI-1) | GI50 (EKVX) | GI50 (HCT-116) | GI50 (HCT-15) [µM] | GI50 (HL-60) | GI50 (HOP-62) | GI50 (KM12) | GI50 (MOLT-4) | GI50 (NCI-H226) | GI50 (OVCAR-4) | GI50 (SK-MEL-28) | GI50 (SN12C) | GI50 (SNB-75) | GI50 (TK-10) | GI50 (UACC-62) | GI50 (A498) |
| --- | --- | --- | --- | --- | --- | --- | --- | --- | --- | --- | --- | --- | --- | --- | --- | --- | --- |
| O=CC1CCC=CC1NC(=O)OCc1ccccc1 (stereo not given) | 33.8 µM (inactive) | 34.4 µM (inactive) | > 100 µM (inactive) | 19.1 µM (inactive) | 54.8 | 7.14 µM (inactive) | > 100 µM (inactive) | 47 µM (inactive) | 44.5 µM (inactive) | > 100 µM (inactive) | 94.6 µM (inactive) | > 100 µM (inactive) | 35 µM (inactive) | 29.2 µM (inactive) | 53.3 µM (inactive) | 42.5 µM (inactive) |  |
| C/C(CC(=O)Nc1ccc([N+](=O)[O-])cc1)=N\Nc1ccc([N+](=O)[O-])cc1[N+](=O)[O-] | > 100 µM (inactive) |  | > 100 µM (inactive) | 59.7 µM (inactive) | 7.66 | 31.9 µM (inactive) | 50.1 µM (inactive) | 29.3 µM (inactive) | 13.1 µM (inactive) | 52.7 µM (inactive) |  | > 100 µM (inactive) |  | > 100 µM (inactive) | > 100 µM (inactive) | 49 µM (inactive) | 59.8 µM (inactive) |
| CC12OC3(O)C4C5CC(C6C5C3C61)C42 (stereo not given) | 38.3 µM (inactive) | > 100 µM (inactive) |  | > 100 µM (inactive) | > 100 | > 100 µM (inactive) | > 100 µM (inactive) | > 100 µM (inactive) | > 100 µM (inactive) | > 100 µM (inactive) | > 100 µM (inactive) | > 100 µM (inactive) | > 100 µM (inactive) | > 100 µM (inactive) | > 100 µM (inactive) | > 100 µM (inactive) |  |
| Nc1ncnc2c1ncn2COC/C=C/I | > 100 µM (inactive) | > 100 µM (inactive) | 77.6 µM (inactive) | > 100 µM (inactive) |  |  | > 100 µM (inactive) | > 100 µM (inactive) | > 100 µM (inactive) | > 100 µM (inactive) | > 100 µM (inactive) | > 100 µM (inactive) | > 100 µM (inactive) | 36.7 µM (inactive) | > 100 µM (inactive) | > 100 µM (inactive) | > 100 µM (inactive) |
| Cn1c(=O)nc2n(-c3ccc(F)cc3)c3ccccc3nc-2c1=O | 28.2 µM (inactive) | 28.8 µM (inactive) | 16.4 µM (inactive) | 17.5 µM (inactive) | 16.4 |  | 46.7 µM (inactive) | 24.7 µM (inactive) | 25.7 µM (inactive) | 36.7 µM (inactive) | 14.4 µM (inactive) |  | 20.5 µM (inactive) | 31 µM (inactive) | 26.5 µM (inactive) | 12.2 µM (inactive) | 32.6 µM (inactive) |
